According to patent publication US7745420B2, “Methods for increasing in vivo efficacy of oligonucleotides and inhibiting inflammation in mammals” (Topigen Pharmaceutique, Inc., priority 2001, dated 2010):
[DAP] = 2,6-diaminopurine base (2-amino-2'-deoxyadenosine) replacing adenine

Legend:
[1] = system: common Beta chain of human GM-CSF, IL-3 and IL-5 receptor; assay: Semi-quantitative RT-PCR of common beta chain mRNA in TF-1 cells treated with antisense; format: cell-based; conditions: TF1 cells; compared with AS107 containing adenosine
Experimental: (§1) Experiments were performed to assess whether antisense oligonucleotides described in international application WO 99/66037 (incorporated herein) directed against the common beta sub-unit of the IL-3, IL-5 and GM-CSF receptor, could inhibit the expression and the function of this receptor when modified by replacing adenosine by either 2-amino-2′-deoxyadenosine or inosine. TF-1 and U937 cells express high levels of GM-CSF receptors. In addition, TF-1 cells are dependent on GM-CSF for survival. These cells were cultured in RPMI 1640 supplemented with 10% heat-inactivated fetal calf serum, penicillin, streptomycin and 1-glutamine at 37° C. in 5% CO2 (the TF-1 cells were supplemented with GM-CSF). For 12 hours they were either cultured in medium alone or medium with sense (107S: 5′-ACCAT CCCGCTGCAGACCC-3′ (SEQ ID NO:19) or antisense (107A: 5′-GGGTCTGCAGCGGGATGGT-3′; SEQ ID NO:20) oligonucleotides to the common beta sub-unit of the IL-3, IL-5 and GM-CSF receptor. The sequence for 107A-DAP was: 5′-GGGTCTGCDapGCGGGDapTGGT-3′ (SEQ ID NO:21); the sequence for 107A-inosine (107A-I) was: 5′-GGGTCTGCIGCGGGIT GGT-3′ (SEQ ID NO:22). The cells were retrieved and washed 3 times. RNA was then retrieved and the presence of the beta chain of the receptor was assessed by semi-quantitative RT-PCR.

[2] = system: common Beta chain of human GM-CSF, IL-3 and IL-5 receptor; assay: Semi-quantitative RT-PCR of common beta chain mRNA in U937 cells treated with antisense; format: cell-based; conditions: compared with AS107 containing adenosine, G3PDH housekeeping gene
Experimental: as §1, with “For 12 hours they were either cultured in medium alone or medium with sense (107S: 5′-ACCAT CCCGCTGCAGACCC-3′ (SEQ ID NO:19) or antisense (107A: 5′-GGGTCTGCAGCGGGATGGT-3′; SEQ ID NO:20) oligonucleotides to the common beta sub-unit of the IL-3, IL-5 and GM-CSF receptor.” left out

[3] = system: lungs/airways; conditions: in vivo; cited from earlier work
[4] = system: human immunodeficiency virus (HIV); conditions: Balzarini et al. 1987; cited from earlier work

5′-GGGTCTGCDapGCGGGDapTGGT-3′ (DNA GGGTCTGCNGCGGGNTGGT; DNA, [DAP] at 9, 15, backbone and methylation of C not given here) [AS107-DAP]
blocking mRNA expression of the common Beta chain, semi-quantitative PCR [1]: at least equally effective
blocking the mRNA for the common Beta chain, semi-quantitative PCR [2]: at least equally effective

OC[C@H]1O[C@@H](n2cnc3c(O)ncnc32)[C@H](O)[C@@H]1O [inosine]
bronchoconstriction of the lungs/airways compared to adenosine [3]: does not cause bronchoconstriction

Nc1nc(N)c2ncn([C@H]3CC[C@@H](CO)O3)c2n1 [2-amino-2′,3′-dideoxyadenosine]
inhibition of HIV replication in vitro [4]: capable of selectively inhibiting
